The results in this text go back to patent US20230065740A1, “CYCLIN-DEPENDENT KINASE INHIBITORS” (SPV THERAPEUTICS INC., priority 2018, published 2023).

Structures are written as SMILES.

For one assay, the target named is CDK7 CyclinH (Homo sapiens, UniProt P50613). The assay is described as follows: Additional inhibition assay, CDK7 CyclinH. In kind it is biochemical.
A further assay concerns the target CDK4-CYCLIND1 (Homo sapiens, UniProt P11802). The assay is described as follows: Microfluidic LabChip kinase inhibition assay, CDK4-CyclinD1. The conditions noted are these: CDK4 CyclinD1 IC50 (μM), 200 μM ATP, second value in parentheses on the next line.
A further assay has as its target CDK1/B (Homo sapiens, UniProt P06493). In words: Additional inhibition assay, CDK1/B. In kind it is biochemical.
A further assay addresses T1, CDK2-CYCLINA (Homo sapiens, UniProt P24941).
T1 construct: purchased Millipore
In words: Microfluidic LabChip kinase inhibition assay, CDK2-CyclinA. The format is biochemical. Particulars: 50 μM ATP.

The next assay has as its target T2, CDK9-CYCLINT1 (Homo sapiens, UniProt P50750).
T2 construct: purchased Carna
In words: Microfluidic LabChip kinase inhibition assay, CDK9-CyclinT1. The format is biochemical. The conditions noted are these: Table 3a; 10 μM ATP; read-out: CDK9 CyclinT1 IC50.

CDK1/B, sequence (P06493 whole entry): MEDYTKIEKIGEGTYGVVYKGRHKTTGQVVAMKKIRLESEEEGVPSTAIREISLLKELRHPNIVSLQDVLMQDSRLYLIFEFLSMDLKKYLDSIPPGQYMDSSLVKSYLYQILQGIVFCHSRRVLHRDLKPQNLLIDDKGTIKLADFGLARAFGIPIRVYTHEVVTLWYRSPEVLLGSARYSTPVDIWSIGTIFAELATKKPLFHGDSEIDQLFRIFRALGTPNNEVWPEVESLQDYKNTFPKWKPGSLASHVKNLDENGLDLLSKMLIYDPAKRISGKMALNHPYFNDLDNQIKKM
CDK1/B, sequence (P14635 whole entry partner): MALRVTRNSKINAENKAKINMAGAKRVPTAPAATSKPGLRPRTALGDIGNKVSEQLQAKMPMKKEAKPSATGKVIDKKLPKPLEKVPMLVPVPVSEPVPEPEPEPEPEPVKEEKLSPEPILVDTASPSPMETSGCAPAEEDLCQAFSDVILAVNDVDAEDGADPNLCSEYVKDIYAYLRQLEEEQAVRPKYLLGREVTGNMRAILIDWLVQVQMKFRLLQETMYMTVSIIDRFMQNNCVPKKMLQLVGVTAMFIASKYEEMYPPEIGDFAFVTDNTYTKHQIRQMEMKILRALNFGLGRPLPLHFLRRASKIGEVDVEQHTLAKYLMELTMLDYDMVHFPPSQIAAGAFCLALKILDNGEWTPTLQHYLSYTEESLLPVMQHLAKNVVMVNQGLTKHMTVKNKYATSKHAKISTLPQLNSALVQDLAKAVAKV
T2 sequence (P50750 whole entry): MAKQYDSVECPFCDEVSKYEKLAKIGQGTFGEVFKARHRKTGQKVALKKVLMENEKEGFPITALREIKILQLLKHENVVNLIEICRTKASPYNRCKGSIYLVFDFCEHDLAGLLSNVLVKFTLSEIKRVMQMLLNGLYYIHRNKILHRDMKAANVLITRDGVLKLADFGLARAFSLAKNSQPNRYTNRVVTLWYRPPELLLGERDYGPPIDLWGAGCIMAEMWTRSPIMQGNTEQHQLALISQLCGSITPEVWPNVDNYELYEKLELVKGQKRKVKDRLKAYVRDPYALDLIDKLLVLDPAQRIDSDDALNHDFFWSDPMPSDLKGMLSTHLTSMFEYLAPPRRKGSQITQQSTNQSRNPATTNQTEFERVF
T2 sequence (O60563 whole entry partner): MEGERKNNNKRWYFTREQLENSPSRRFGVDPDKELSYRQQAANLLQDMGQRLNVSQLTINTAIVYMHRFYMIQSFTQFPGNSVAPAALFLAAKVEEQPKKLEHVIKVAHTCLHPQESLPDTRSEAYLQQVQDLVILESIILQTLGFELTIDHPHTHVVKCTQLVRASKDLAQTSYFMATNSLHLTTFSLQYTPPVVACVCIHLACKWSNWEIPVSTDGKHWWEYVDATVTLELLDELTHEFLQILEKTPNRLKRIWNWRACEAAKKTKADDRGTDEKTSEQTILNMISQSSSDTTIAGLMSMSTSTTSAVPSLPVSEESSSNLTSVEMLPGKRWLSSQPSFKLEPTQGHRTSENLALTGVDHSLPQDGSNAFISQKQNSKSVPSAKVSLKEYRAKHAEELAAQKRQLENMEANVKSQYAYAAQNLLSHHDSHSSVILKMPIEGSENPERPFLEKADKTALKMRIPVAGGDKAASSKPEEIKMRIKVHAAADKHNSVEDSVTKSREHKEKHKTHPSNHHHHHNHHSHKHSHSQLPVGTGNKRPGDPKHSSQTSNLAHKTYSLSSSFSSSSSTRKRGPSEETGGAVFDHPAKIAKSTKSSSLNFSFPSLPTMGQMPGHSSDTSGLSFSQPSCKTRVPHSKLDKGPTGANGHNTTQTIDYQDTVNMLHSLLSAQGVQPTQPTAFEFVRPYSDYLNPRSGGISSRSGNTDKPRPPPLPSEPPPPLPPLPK
CDK4-CYCLIND1, sequence (P11802 whole entry): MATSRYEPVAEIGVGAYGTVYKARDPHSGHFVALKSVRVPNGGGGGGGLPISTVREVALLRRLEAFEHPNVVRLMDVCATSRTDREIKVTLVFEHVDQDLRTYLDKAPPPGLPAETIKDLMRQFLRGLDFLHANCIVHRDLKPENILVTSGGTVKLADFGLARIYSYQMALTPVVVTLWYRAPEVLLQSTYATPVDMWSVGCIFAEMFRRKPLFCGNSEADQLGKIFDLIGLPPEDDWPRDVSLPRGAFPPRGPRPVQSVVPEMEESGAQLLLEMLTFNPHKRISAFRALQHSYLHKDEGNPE
CDK4-CYCLIND1, sequence (P24385 whole entry partner): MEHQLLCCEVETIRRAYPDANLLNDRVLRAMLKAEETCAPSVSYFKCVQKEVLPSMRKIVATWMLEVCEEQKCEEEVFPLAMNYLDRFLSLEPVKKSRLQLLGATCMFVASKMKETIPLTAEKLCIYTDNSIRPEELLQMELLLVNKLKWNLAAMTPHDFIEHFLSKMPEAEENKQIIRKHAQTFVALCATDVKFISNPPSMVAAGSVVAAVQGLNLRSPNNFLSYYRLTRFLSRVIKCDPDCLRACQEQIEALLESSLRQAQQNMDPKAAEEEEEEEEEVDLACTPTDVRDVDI
CDK7 CyclinH, sequence (P50613 whole entry): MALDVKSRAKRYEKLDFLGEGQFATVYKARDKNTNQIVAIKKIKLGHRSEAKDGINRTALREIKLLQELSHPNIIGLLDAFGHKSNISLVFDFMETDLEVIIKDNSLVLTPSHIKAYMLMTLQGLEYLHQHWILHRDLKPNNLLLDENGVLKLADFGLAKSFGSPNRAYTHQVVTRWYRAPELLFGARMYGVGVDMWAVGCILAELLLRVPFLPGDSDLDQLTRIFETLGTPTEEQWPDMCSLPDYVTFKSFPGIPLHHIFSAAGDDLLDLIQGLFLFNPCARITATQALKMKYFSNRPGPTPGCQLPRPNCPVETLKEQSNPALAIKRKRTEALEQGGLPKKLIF
CDK7 CyclinH, sequence (P51946 whole entry partner): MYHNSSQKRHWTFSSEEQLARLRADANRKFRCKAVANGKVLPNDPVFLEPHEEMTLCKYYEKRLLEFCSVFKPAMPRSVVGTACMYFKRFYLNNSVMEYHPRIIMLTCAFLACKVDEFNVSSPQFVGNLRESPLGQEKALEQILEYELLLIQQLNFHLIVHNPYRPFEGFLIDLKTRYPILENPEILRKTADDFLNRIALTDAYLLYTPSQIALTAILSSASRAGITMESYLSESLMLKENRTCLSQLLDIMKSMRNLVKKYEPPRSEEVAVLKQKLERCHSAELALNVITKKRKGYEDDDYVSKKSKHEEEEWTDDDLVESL
CDK7 CyclinH, sequence (P51948 whole entry partner): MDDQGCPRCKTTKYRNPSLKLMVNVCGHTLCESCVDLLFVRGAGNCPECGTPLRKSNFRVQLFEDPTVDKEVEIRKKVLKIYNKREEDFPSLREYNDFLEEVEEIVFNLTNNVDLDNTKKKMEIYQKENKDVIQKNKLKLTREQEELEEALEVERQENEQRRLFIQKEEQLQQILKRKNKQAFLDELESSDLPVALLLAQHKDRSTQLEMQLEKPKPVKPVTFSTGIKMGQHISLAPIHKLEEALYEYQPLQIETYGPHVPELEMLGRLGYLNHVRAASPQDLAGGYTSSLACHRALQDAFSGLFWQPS

Turning to `COc1cc(Nc2ncc3c(n2)N(C2CCCC2)C2(CCNC2=O)C3)ccc1N1CCN(C)CC1` (stereo not drawn) [Compound C123, 7′-cyclopentyl-2′-((3-methoxy-4-(4-methylpiperazin-1-yl)phenyl)amino)-5′,7′-dihydrospiro[pyrrolidine-3,6′-pyrrolo[2,3-d]pyrimidin]-2-one], the IC50 against CDK7 CyclinH (Table 3a) was more than 10 µM; at CDK7 CyclinH (Table 3b), more than 10 µM; on CDK4-CYCLIND1 (Table 3a) it was 0.955 µM; at CDK4-CYCLIND1 (Table 3b), 0.955 µM; against CDK1/B (Table 3a), more than 10 µM; against CDK1/B (Table 3b) it was more than 10 µM. In addition, the IC50 against CDK2-CYCLINA (Table 3a) is more than 10 µM; against CDK2-CYCLINA (Table 3b), more than 10 µM; on CDK9-CYCLINT1, 0.292 µM.

On to `CN1CCN(c2ccc(Nc3ncc4c(n3)N(C3CCCC3)C3(CCNC3=O)C4)cn2)CC1` (stereo not drawn) [Compound C129, 7′-cyclopentyl-2′-((6-(4-methylpiperazin-1-yl)pyridin-3-yl)amino)-5′,7′-dihydrospiro[pyrrolidine-3,6′-pyrrolo[2,3-d]pyrimidin]-2-one], for which the half-maximal inhibitory concentration (IC50) was more than 10 µM against CDK7 CyclinH (Table 3a); more than 10 µM at CDK7 CyclinH (Table 3b); 0.103 µM at CDK4-CYCLIND1 (Table 3a); 0.103 µM at CDK4-CYCLIND1 (Table 3b); 8.52 µM against CDK1/B (Table 3a); 8.52 µM at CDK1/B (Table 3b). For the same molecule, the results for the IC50 against CDK2-CYCLINA (Table 3a), on CDK2-CYCLINA (Table 3b) and on CDK9-CYCLINT1 were more than 10 µM, more than 10 µM and 0.0628 µM, respectively.

Consider `O=C1NCCC12Cc1cnc(Nc3ccc(N4CCC(N5CCOCC5)CC4)cc3)nc1N2C1CCCC1` (stereo not drawn) [Compound C131, 7′-cyclopentyl-2′-((4-(4-morpholinopiperidin-1-yl)phenyl)amino)-5′,7′-dihydrospiro[pyrrolidine-3,6′-pyrrolo[2,3-d]pyrimidin]-2-one], for which the IC50 against CDK7 CyclinH (Table 3a) was more than 10 µM; against CDK7 CyclinH (Table 3b), more than 10 µM; on CDK4-CYCLIND1 (Table 3a), 0.273 µM; at CDK4-CYCLIND1 (Table 3b) it was 0.273 µM; against CDK1/B (Table 3a) it was more than 10 µM; at CDK1/B (Table 3b) it was more than 10 µM. The IC50 against CDK2-CYCLINA (Table 3a) is more than 10 µM; at CDK2-CYCLINA (Table 3b), more than 10 µM; on CDK9-CYCLINT1, 0.298 µM.

Turning to `O=C1NCCC12Cc1cnc(Nc3ccc(N4CCC(N5CCOCC5)CC4)c(F)c3)nc1N2C1CCCC1` (stereo not drawn) [Compound C132, 7′-cyclopentyl-2′-((3-fluoro-4-(4-morpholinopiperidin-1-yl)phenyl)amino)-5′,7′-dihydrospiro[pyrrolidine-3,6′-pyrrolo[2,3-d]pyrimidin]-2-one], the concentration for half-maximal inhibition (IC50) is more than 10 µM at CDK7 CyclinH (Table 3a); more than 10 µM against CDK7 CyclinH (Table 3b); 0.0561 µM at CDK4-CYCLIND1 (Table 3a); 0.0561 µM at CDK4-CYCLIND1 (Table 3b); 6.93 µM on CDK1/B (Table 3a); 6.93 µM at CDK1/B (Table 3b). In addition, the IC50 at CDK2-CYCLINA (Table 3a) is 9.66 µM; on CDK2-CYCLINA (Table 3b) it was 9.66 µM; at CDK9-CYCLINT1, 0.0402 µM.

As for `O=C1NCCC12Cc1cnc(Nc3ccc(N4CCC(N5CCOCC5)CC4)nc3)nc1N2C1CCCC1` (stereo not drawn) [Compound C133, 7′-cyclopentyl-2′-((6-(4-morpholinopiperidin-1-yl)pyridin-3-yl)amino)-5′,7′-dihydrospiro[pyrrolidine-3,6′-pyrrolo[2,3-d]pyrimidin]-2-one], the IC50 on CDK7 CyclinH (Table 3a) is more than 10 µM; against CDK7 CyclinH (Table 3b), more than 10 µM; at CDK4-CYCLIND1 (Table 3a), 0.202 µM; at CDK4-CYCLIND1 (Table 3b), 0.202 µM; against CDK1/B (Table 3a), more than 10 µM; against CDK1/B (Table 3b) it was more than 10 µM. For the same molecule, the IC50 is more than 10 µM on CDK2-CYCLINA (Table 3a), more than 10 µM at CDK2-CYCLINA (Table 3b) and 0.125 µM on CDK9-CYCLINT1.

`CN1CC2(C1)CN(c1ccc(Nc3ncc4c(n3)N(C3CCCC3)C3(CC(=O)NC3=O)C4)cc1F)C2` (stereo not drawn) [Compound C149, 7′-cyclopentyl-2′-((3-fluoro-4-(6-methyl-2,6-diazaspiro[3.3]heptan-2-yl)phenyl)amino)-5′,7′-dihydrospiro[pyrrolidine-3,6′-pyrrolo[2,3-d]pyrimidine]-2,5-dione]: the IC50 is more than 10 µM against CDK7 CyclinH (Table 3a); more than 10 µM at CDK7 CyclinH (Table 3b); 0.593 µM on CDK4-CYCLIND1 (Table 3a); 0.593 µM on CDK4-CYCLIND1 (Table 3b); more than 10 µM on CDK1/B (Table 3a); more than 10 µM against CDK1/B (Table 3b). For the same molecule, the figures for the IC50 against CDK2-CYCLINA (Table 3a), against CDK2-CYCLINA (Table 3b) and on CDK9-CYCLINT1 were more than 10 µM, more than 10 µM and 0.0852 µM, respectively.

Consider `CC(C)N1CC2(CN(c3ccc(Nc4ncc5c(n4)N(C4CCCC4)C4(CC(=O)NC4=O)C5)cc3)C2)C1` (stereo not drawn) [Compound C150, 7′-cyclopentyl-2′-((4-(6-isopropyl-2,6-diazaspiro[3.3]heptan-2-yl)phenyl)amino)-5′,7′-dihydrospiro[pyrrolidine-3,6′-pyrrolo[2,3-d]pyrimidine]-2,5-dione], for which the IC50 against CDK7 CyclinH (Table 3a) was more than 10 µM; on CDK7 CyclinH (Table 3b) it was more than 10 µM; on CDK4-CYCLIND1 (Table 3a), 0.522 µM; on CDK4-CYCLIND1 (Table 3b), 0.522 µM; against CDK1/B (Table 3a), more than 10 µM; at CDK1/B (Table 3b) it was more than 10 µM. The IC50 against CDK2-CYCLINA (Table 3a) is more than 10 µM; on CDK2-CYCLINA (Table 3b) it was more than 10 µM; at CDK9-CYCLINT1, 0.27 µM.

For `CN1CCC(c2ccc(Nc3ncc4c(n3)N(C3CCCC3)C3(CCNC3=O)C4)cc2)CC1` (stereo not drawn) [Compound C164, 7′-cyclopentyl-2′-((4-(1-methylpiperidin-4-yl)phenyl)amino)-5′,7′-dihydrospiro[pyrrolidine-3,6′-pyrrolo[2,3-d]pyrimidin]-2-one], the IC50 against CDK7 CyclinH (Table 3a) was more than 10 µM; on CDK7 CyclinH (Table 3b), more than 10 µM; at CDK4-CYCLIND1 (Table 3a), 0.167 µM; on CDK4-CYCLIND1 (Table 3b), 0.167 µM; against CDK1/B (Table 3a), more than 10 µM; at CDK1/B (Table 3b), more than 10 µM. The 50% inhibitory concentration (IC50) was more than 10 µM on CDK2-CYCLINA (Table 3a), more than 10 µM on CDK2-CYCLINA (Table 3b) and 0.117 µM on CDK9-CYCLINT1.

Take `O=C1NCCC12Cc1cnc(Nc3ccc(OCCN4CCOCC4)cc3)nc1N2C1CCCC1` (stereo not drawn) [Compound C165, 7′-cyclopentyl-2′-((4-(2-morpholinoethoxy)phenyl)amino)-5′,7′-dihydrospiro[pyrrolidine-3,6′-pyrrolo[2,3-d]pyrimidin]-2-one]: the concentration for half-maximal inhibition (IC50) against CDK7 CyclinH (Table 3a) is more than 10 µM; on CDK7 CyclinH (Table 3b), more than 10 µM; at CDK4-CYCLIND1 (Table 3a), 0.702 µM; on CDK4-CYCLIND1 (Table 3b), 0.702 µM; on CDK1/B (Table 3a) it was more than 10 µM; at CDK1/B (Table 3b) it was more than 10 µM. Besides, the half-inhibitory concentration (IC50) against CDK2-CYCLINA (Table 3a) was more than 10 µM; against CDK2-CYCLINA (Table 3b) it was more than 10 µM; at CDK9-CYCLINT1, 0.0914 µM.

In the case of `Cn1cc(-c2ccc(Nc3ncc4c(n3)N(C3CCCC3)C3(CCNC3=O)C4)cc2)cn1` (stereo not drawn) [Compound C168, 7′-cyclopentyl-2′-((4-(1-methyl-1H-pyrazol-4-yl)phenyl)amino)-5′,7′-dihydrospiro[pyrrolidine-3,6′-pyrrolo[2,3-d]pyrimidin]-2-one], the IC50 was more than 10 µM against CDK7 CyclinH (Table 3a); more than 10 µM against CDK7 CyclinH (Table 3b); 1.31 µM on CDK4-CYCLIND1 (Table 3a); 1.31 µM on CDK4-CYCLIND1 (Table 3b); more than 10 µM against CDK1/B (Table 3a); more than 10 µM against CDK1/B (Table 3b). Further, the IC50 against CDK2-CYCLINA (Table 3a) is more than 10 µM; on CDK2-CYCLINA (Table 3b) it was more than 10 µM; on CDK9-CYCLINT1 it was 0.0231 µM.

With `O=C1NCCC12Cc1cnc(Nc3ccc(OCCN4CCCC4)nc3)nc1N2C1CCCC1` (stereo not drawn) [Compound C170, 7′-cyclopentyl-2′-((6-(2-(pyrrolidin-1-yl)ethoxy)pyridin-3-yl)amino)-5′,7′-dihydrospiro[pyrrolidine-3,6′-pyrrolo[2,3-d]pyrimidin]-2-one], the IC50 against CDK7 CyclinH (Table 3a) is more than 10 µM; on CDK7 CyclinH (Table 3b) it was more than 10 µM; at CDK4-CYCLIND1 (Table 3a) it was 0.233 µM; on CDK4-CYCLIND1 (Table 3b), 0.233 µM; on CDK1/B (Table 3a), more than 10 µM; on CDK1/B (Table 3b), more than 10 µM. In addition, the IC50 against CDK2-CYCLINA (Table 3a) is more than 10 µM; against CDK2-CYCLINA (Table 3b), more than 10 µM; on CDK9-CYCLINT1, 0.0282 µM.

With `CN(C)[C@H]1CCN(c2ccc(Nc3ncc4c(n3)N(C3CCCC3)C3(CCNC3=O)C4)cc2F)C1` (stereo partly drawn) [Compound C173, 7′-cyclopentyl-2′-((4-((S)-3-(dimethylamino)pyrrolidin-1-yl)-3-fluorophenyl)amino)-5′,7′-dihydrospiro[pyrrolidine-3,6′-pyrrolo[2,3-d]pyrimidin]-2-one], the IC50 at CDK7 CyclinH (Table 3a) was more than 10 µM; against CDK7 CyclinH (Table 3b), more than 10 µM; at CDK4-CYCLIND1 (Table 3a) it was 0.109 µM; on CDK4-CYCLIND1 (Table 3b), 0.109 µM; against CDK1/B (Table 3a) it was 8.41 µM; against CDK1/B (Table 3b), 8.41 µM. Further, the IC50 against CDK2-CYCLINA (Table 3a) was more than 10 µM; on CDK2-CYCLINA (Table 3b), more than 10 µM; on CDK9-CYCLINT1, 0.0336 µM.

For the molecule `CN(C)[C@@H]1CCN(c2ccc(Nc3ncc4c(n3)N(C3CCCC3)C3(CCNC3=O)C4)cc2F)C1` (stereo partly drawn) [Compound C176, 7′-cyclopentyl-2′-((4-((R)-3-(dimethylamino)pyrrolidin-1-yl)-3-fluorophenyl)amino)-5′,7′-dihydrospiro[pyrrolidine-3,6′-pyrrolo[2,3-d]pyrimidin]-2-one], the IC50 against CDK7 CyclinH (Table 3a) was more than 10 µM; at CDK7 CyclinH (Table 3b), more than 10 µM; at CDK4-CYCLIND1 (Table 3a), 0.142 µM; on CDK4-CYCLIND1 (Table 3b), 0.142 µM; against CDK1/B (Table 3a), 7.58 µM; against CDK1/B (Table 3b), 7.58 µM. For the same molecule, the values for the IC50 against CDK2-CYCLINA (Table 3a), on CDK2-CYCLINA (Table 3b) and at CDK9-CYCLINT1 were more than 10 µM, more than 10 µM and 0.027 µM, respectively.

As for `CN(C)[C@H]1CCN(C(=O)c2ccc(Nc3ncc4c(n3)N(C3CCCC3)C3(CCNC3=O)C4)cc2)C1` (stereo partly drawn) [Compound C178, 7′-cyclopentyl-2′-((4-((S)-3-(dimethylamino)pyrrolidine-1-carbonyl)phenyl)amino)-5′,7′-dihydrospiro[pyrrolidine-3,6′-pyrrolo[2,3-d]pyrimidin]-2-one], the IC50 on CDK7 CyclinH (Table 3a) is more than 10 µM; against CDK7 CyclinH (Table 3b) it was more than 10 µM; on CDK4-CYCLIND1 (Table 3a) it was 0.0453 µM; at CDK4-CYCLIND1 (Table 3b) it was 0.0453 µM; against CDK1/B (Table 3a), 1.05 µM; against CDK1/B (Table 3b), 1.05 µM. For the same molecule, the IC50 against CDK2-CYCLINA (Table 3a) came to 0.681 µM; against CDK2-CYCLINA (Table 3b) it was 0.681 µM; at CDK9-CYCLINT1 it was 0.00865 µM.
